{"source": "patent US8652838B2", "about": "“Platensimycin biosynthetic gene cluster of Streptomyces platensis” (Wisconsin Alumni Research Foundation, priority 2007, dated 2014)", "key": {"S. platensis MA7327": {"test_system": "S. platensis MA7327", "experiment": "antibiotic sensitivity of S. platensis MA7327", "format": "cell-based, Streptomyces platensis", "description": "The inventors have developed an efficient genetic system for in vivo manipulation of PTM/PTN biosynthesis in S. platensis MA7327 via E. coli-S. platensis conjugation. […] Although S. platensis protoplasts can be readily prepared and regenerated with high frequency, introduction of either replicative or integrative plasmid into S. platensis via protoplast-mediated transformation has not been successful (Kieser et al., 2000)."}, "Streptococcus pneumoniae": {"test_system": "Streptococcus pneumoniae", "details": "cited from earlier work"}, "[1]": {"details": "animal model studies; cited from earlier work"}, "[2]": {"test_system": "vancomycin-resistant E. faecium", "details": "cited from earlier work"}, "Escherichia coli": {"test_system": "Escherichia coli", "details": "cited from earlier work"}, "Streptomyces albus J1074": {"test_system": "Streptomyces albus J1074", "experiment": "paper disk susceptibility of S. albus J1074", "format": "cell-based", "details": "0.5-4 μg on paper disk", "description": "(§1) FIGS. 6A-C: Engineering of S. platensis. (FIG. 6A) Additional biosynthetic intermediates and shunt metabolites isolated from the wild-type S. platensis MA7327 strain. (FIG. 6B) Production of PTM (●) and PTN (♦) by the engineered S. platensis SB12002 (iv) and SB12001 (iii) strains with the wild-type S. platensis MA7327 as a control under two fermentation conditions for PTM (i) and PTM and PTN (ii) production. (FIG. 6C) Susceptibility of S. avermitilis and S. albus J1074 to PTM and PTN: 1, negative controls; 2, 4 μg; 3, 4 μg; 4, 2 μg; 5, 1 μg; 6, 0.5 μg of PTM or PTN on each paper disk.\n(§2) Having large quantity (multiple grams) of PTM and PTN in hand from the overproducers, the inventors systematically examined the sensitivity of a battery of Streptomyces towards PTM or PTN. Remarkably, they have identified strains that are sensitive to both PTM and PTN, as exemplified by Streptomyces avermitilis, or PTN but not PTM, as exemplified by Streptomyces albus J1074 (FIG. 6C). The differential sensitivity of the organisms tested towards PTM and PTN is consistent with the established mode of action for PTM and PTN (i.e., PTM as a FabB/F inhibitor while PTN as a FabB/F and FabH dual inhibitor)—targeting two essential proteins should lead to lower resistance potential than targeting only one. […]"}, "S. aureus infection": {"test_system": "S. aureus infection", "details": "cited from earlier work"}, "Streptomyces avermitilis": {"test_system": "Streptomyces avermitilis", "experiment": "paper disk susceptibility of S. avermitilis", "format": "cell-based", "details": "0.5-4 μg on paper disk", "description": "as §1, §2"}, "FabH [3]": {"target": "T1, FabH (Staphylococcus aureus, UniProt Q8NXE2)", "T1 sequence (Q8NXE2 1-313)": "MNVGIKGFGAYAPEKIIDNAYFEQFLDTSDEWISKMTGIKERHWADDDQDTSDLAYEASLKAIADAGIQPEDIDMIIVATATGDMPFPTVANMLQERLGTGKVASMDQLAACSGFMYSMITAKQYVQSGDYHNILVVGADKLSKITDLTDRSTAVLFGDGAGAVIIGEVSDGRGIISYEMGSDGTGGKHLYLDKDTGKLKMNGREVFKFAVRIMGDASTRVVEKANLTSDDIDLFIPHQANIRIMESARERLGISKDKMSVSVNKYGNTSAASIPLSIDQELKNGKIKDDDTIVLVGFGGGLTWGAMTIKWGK", "details": "cited from earlier work"}, "S. aureus": {"test_system": "S. aureus", "details": "cited from earlier work"}, "FabF [4]": {"target": "T2, FabF (Staphylococcus aureus, UniProt Q5TKS0)", "T2 sequence (Q5TKS0 1-403)": "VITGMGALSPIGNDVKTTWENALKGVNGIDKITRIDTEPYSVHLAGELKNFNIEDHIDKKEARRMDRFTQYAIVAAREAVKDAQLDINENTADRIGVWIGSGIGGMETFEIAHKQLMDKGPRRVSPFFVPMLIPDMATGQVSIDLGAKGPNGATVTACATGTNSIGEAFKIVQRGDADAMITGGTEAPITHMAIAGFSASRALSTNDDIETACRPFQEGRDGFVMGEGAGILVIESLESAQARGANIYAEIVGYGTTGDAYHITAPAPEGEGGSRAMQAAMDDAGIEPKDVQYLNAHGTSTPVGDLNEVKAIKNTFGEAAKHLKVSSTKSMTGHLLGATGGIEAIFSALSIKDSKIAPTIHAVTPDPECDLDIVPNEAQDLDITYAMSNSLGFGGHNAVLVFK", "details": "14C-radiolabeled malonyl-CoA, polyacrylamide gel electrophoresis; cited from earlier work"}, "[5]": {"test_system": "DNA, RNA, protein or cell wall biosynthesis", "details": "whole-cell labeling; cited from earlier work"}, "FabF [6]": {"target": "T2, FabF", "details": "cited from earlier work"}, "[7]": {"test_system": "lipid biosynthesis in S. aureus", "details": "whole-cell labeling; cited from earlier work"}, "FabH [8]": {"target": "T1, FabH", "details": "cited from earlier work", "remark": "listed apart in the source"}, "mammalian cell": {"test_system": "mammalian cell", "details": "cited from earlier work"}}, "note": "Like-named read-outs stand apart in the source and are kept apart here."}
{"compound": "CN[C@@H]1[C@@H](O[C@H]2O[C@H](CO)[C@@H](N)[C@H](O)[C@H]2O)OC2C[C@@H](N)[C@@H](O[C@H]3[C@H](O)[C@@H](O)[C@H](N)C[C@@H]3N)OC2[C@@H]1O", "note": "(stereo partly shown) [apramycin]", "values": [{"measurement": "concentration giving complete inhibition of growth", "setting": "S. platensis MA7327", "value": 25, "unit": "µg/mL"}]}
{"compound": "C=C1C[C@@]23C=CC(=O)[C@@](C)(CCC(=O)Nc4c(O)ccc(C(=O)O)c4O)[C@@H]2C[C@@H]1CC3", "note": "[platencin]", "values": [{"measurement": "antibacterial activity compared to platensimycin", "setting": "Streptococcus pneumoniae; S. pneumoniae", "value": "decreased activity"}, {"measurement": "pharmacokinetics", "setting": "[1]", "value": "exceedingly poor pharmacokinetics"}, {"measurement": "antibacterial activity compared to platensimycin", "setting": "[2]", "value": "increased antibacterial activity"}, {"measurement": "antibacterial activity compared to platensimycin", "setting": "Escherichia coli; efflux-negative E. coli", "value": "increased antibacterial activity"}, {"measurement": "sensitivity of Streptomyces albus J1074", "setting": "Streptomyces albus J1074", "value": "sensitive"}, {"measurement": "reduction of S. aureus cfu in kidney", "setting": "S. aureus infection; mouse, continuous infusion 150 μg/h, over 24 h", "value": 3, "unit": "log"}, {"measurement": "in vivo efficacy", "setting": "S. aureus infection; mouse, in vivo", "value": "potent in vivo efficacy"}, {"measurement": "observed toxicity in vivo", "setting": "S. aureus infection; mouse, in vivo", "value": "without any observed toxicity"}, {"measurement": "sensitivity of Streptomyces avermitilis", "setting": "Streptomyces avermitilis", "value": "sensitive"}, {"measurement": "FabH inhibition", "setting": "FabH [3]", "value": "inhibits FabH"}]}
{"compound": "NC[C@H]1O[C@H](O[C@H]2[C@H](O)[C@@H](O[C@H]3O[C@H](CO)[C@@H](O)[C@H](N)[C@H]3O)[C@H](N)C[C@@H]2N)[C@H](O)[C@@H](O)[C@@H]1O", "note": "[kanamycin]", "values": [{"measurement": "concentration giving complete inhibition of growth", "setting": "S. platensis MA7327", "value": 25, "unit": "µg/mL"}]}
{"compound": "C=C(NC(=O)C(=C)NC(=O)c1csc(C2=N[C@@H]3c4csc(n4)[C@H]4NC(=O)c5csc(n5)[C@H]([C@](C)(O)[C@@H](C)O)NC(=O)[C@H]5CSC(=N5)/C(=C/C)NC(=O)[C@H]([C@@H](C)O)NC(=O)c5csc(n5)[C@]3(CC2)NC(=O)[C@H](C)NC(=O)C(=C)NC(=O)[C@H](C)NC(=O)[C@H]([C@@H](C)CC)N[C@@H]2C=Cc3c([C@H](C)O)cc(nc3[C@H]2O)C(=O)O[C@@H]4C)n1)C(N)=O", "note": "[thiostrepton]", "values": [{"measurement": "concentration giving complete inhibition of growth", "setting": "S. platensis MA7327", "value": 10, "unit": "µg/mL"}]}
{"compound": "C[C@]12C[C@@]34C=CC(=O)[C@@](C)(CCC(=O)Nc5c(O)ccc(C(=O)O)c5O)C3[C@H](CC1C4)O2", "note": "(stereo partly shown) [PTM, platensimycin]", "values": [{"measurement": "minimal inhibitory concentration", "setting": "S. aureus", "value": 1, "unit": "µM"}, {"measurement": "preference for FabF inhibition relative to FabH inhibition", "setting": "FabF [4]", "value": 838, "unit": "fold"}, {"measurement": "concentration without inhibition of DNA, RNA, protein or cell wall biosynthesis", "setting": "[5]", "value": "> 500", "unit": "µg/mL"}, {"measurement": "minimal inhibitory concentration", "setting": "Streptococcus pneumoniae", "value": 2.5, "unit": "µM"}, {"measurement": "pharmacokinetics", "setting": "[1]", "value": "exceedingly poor pharmacokinetics"}, {"measurement": "greater potency than cerulenin as inhibitor of FabF", "setting": "FabF [6]; relative to cerulenin", "value": 200, "unit": "fold"}, {"measurement": "IC50", "setting": "FabF [6]; single enzyme inhibition assays", "value": "< 50", "unit": "nM"}, {"measurement": "antibacterial activity", "setting": "Escherichia coli; efflux-negative Escherichia coli", "value": "showed antibacterial activity"}, {"measurement": "effectiveness against Gram-negative Escherichia coli", "setting": "Escherichia coli; tolC dependent efflux", "value": "not very effective"}, {"measurement": "antibacterial activity", "setting": "Escherichia coli; wild-type E. coli", "value": "not against wild-type E. coli"}, {"measurement": "IC50 inhibition of lipid biosynthesis", "setting": "[7]", "value": 0.1, "unit": "µg/mL"}, {"measurement": "decrease of S. aureus infection", "setting": "S. aureus infection; mouse, 100 μg/h intravenously with a continuous pump, over 24 hrs", "value": "10^4-10^5 fold"}, {"measurement": "sensitivity of Streptomyces avermitilis", "setting": "Streptomyces avermitilis", "value": "sensitive"}, {"measurement": "inhibition of S. aureus FabH", "setting": "FabH [8]", "value": "weak inhibition"}, {"measurement": "mammalian cell toxicity", "setting": "mammalian cell", "value": "Low"}, {"measurement": "FabH inhibition", "setting": "FabH [3]", "value": "does not inhibit FabH to any significant extent"}]}
{"compound": "CC[C@H]1OC(=O)[C@H](C)[C@@H](O[C@H]2C[C@@](C)(OC)[C@@H](O)[C@H](C)O2)[C@H](C)[C@@H](O[C@@H]2O[C@H](C)C[C@H](N(C)C)[C@H]2O)[C@](C)(O)C[C@@H](C)C(=O)[C@H](C)[C@@H](O)[C@]1(C)O", "note": "[erythromycin]", "values": [{"measurement": "concentration giving complete inhibition of growth", "setting": "S. platensis MA7327", "value": 10, "unit": "µg/mL"}]}
{"compound": "platensimycin [PTM]", "values": [{"measurement": "clearing S. aureus infection from a mouse model", "setting": "S. aureus infection; high doses", "value": "effective in clearing S. aureus infection"}]}
